Patent publication US10912814B2, “Combination formulation of three antiviral compounds” (priority 2016, dated 2021)

Experiments:
[1] = Storage stability: appearance, assay/label strength (LS), total impurities/degradation products; format: physicochemical; settings: for I/D (%): tablets, desiccant study
Protocol: In some embodiments, the film-coated tablets were packaged in 75 and 100 mL white HDPE bottles (Lots A and B, respectively, as described in Tables 11A, 11B) with 1 g silica gel desiccant canisters and a polyester fiber coil. The 75 and 100 mL HDPE bottles contained fourteen and twenty eight tablets, respectively. Each HDPE bottle was capped using a white, continuous thread, child-resistant polypropylene screw cap with an […], aluminum-faced line. The packaged tablets (14 and 28 counts) were evaluated for stability at 40° C./75% RH and 25° C./60% RH. Additionally, the 14-count bottles (without cap) were evaluated for stability under open conditions at 40° C./75% RH.
For each of the impact studies, the sofosbuvir/velpatasvir SSD/voxilaprevir SSD tablets were packaged in a designated commercial packaging configuration (28-count, 100 mL HPDE bottle, coil, 1 g desiccant), and stored for 12 weeks at 25° C./60% RH and 40° C./75% RH. Tablets were also packaged in open containers (28-count, 100 mL HPDE bottle without cap) and stored for 4 weeks at 40° C./75% RH and for 1 week at 50° C./92% RH.
The sofosbuvir/velpatasvir SSD/voxilaprevir SSD tablets were packaged in the designated commercial packaging configuration (28-count, 100 mL HPDE bottle, coil, 1 g desiccant), and stored for 6 months at 25° C./60% RH and 40° C./75% RH.

[2] = Tablet dissolution in 50 mM sodium acetate buffer pH 5.0 with 2.0% w/v Polysorbate 80 and 0.001% w/v BHT, 75 rpm, 900 mL, 37° C., USP Type II; format: physicochemical
Protocol: FIGS. 10-12 depict additional dissolution profiles for the sofosbuvir/velpatasvir SSD/voxilaprevir SSD tablets having the formulation described in Table 13 and which were used in phase 1, 2, and 3 clinical studies, where the dissolution testing was conducted at pH 5.0 acetate buffer containing 2.0% w/v polysorbate 80. Four batches of the sofosbuvir/velpatasvir SSD/voxilaprevir SSD tablets were tested, with Batch A manufactured at 100 kg and Batches B, C and D manufactured at 145 kg. All other aspects of the formulation and manufacturing process were otherwise equivalent. The four batches were packed in the same commercial configuration: 28 count, 100 mL HPDE bottle with 1 g silica gel desiccant canister and a polyester fiber coil. […] Moreover, for Batch A, the amount dissolved at 30 min remained between 98 and 100% for sofosbuvir, between 90 and 92% for velpatasvir SSD, and between 89 and 93% for voxilaprevir SSD. […] For Batch D, the amount dissolved at 30 min remained at 100% for sofosbuvir, between 90 and 91% for velpatasvir SSD, and between 89 and 91% for voxilaprevir SSD. Release of velpatasvir SSD and voxilaprevir SSD from the sofosbuvir/velpatasvir SSD/voxilaprevir SSD tablets associated with all four Batches was complete after 60 minutes.

[3] = Batch C tablets, closed 1 g desiccant, 30° C./75% RH, 6 months
[4] = Batch C tablets, closed 1 g desiccant, 40° C./75% RH, 1 month
[5] = Batch C tablets, closed 1 g desiccant, Initial, time 0
[6] = tablets Batch A, 30° C./75% RH, 6 mo
[7] = tablets Batch A, 40° C./75% RH, 3 mo
[8] = tablets Batch B, 40° C./75% RH, 6 mo
[9] = tablets Batch D, 40° C./75% RH, 1 mo

CC(C)OC(=O)C(C)N[P@](=O)(OC[C@H]1O[C@@H](n2ccc(=O)[nH]c2=O)[C@](C)(F)[C@@H]1O)Oc1ccccc1 (stereo in doubt) [Sofosbuvir, (S)-isopropyl 2-(((S)-(((2R,3R,4R,5R)-5-(2,4-dioxo-3,4-dihydropyrimidin-1(2H)-yl)-4-fluoro-3-hydroxy-4-methyltetrahydrofuran-2-yl)methoxy)(phenoxy)phosphoryl)amino)propanoate]
Total Imp./Deg. (%) ([1]; Batch C tablets, closed 1 g desiccant, 25° C./60% RH, 3 months): 0.0% | Total Imp./Deg. (%) ([1]; Batch C tablets, closed 1 g desiccant, 25° C./60% RH, 6 months): 0.0% | Total Imp./Deg. (%) ([1]; Batch C tablets, closed 1 g desiccant, 30° C./75% RH, 3 months): 0.0% | Total Imp./Deg. (%) [1, 3]: 0.0% | Total Imp./Deg. (%) [1, 4]: 0.0% | Total Imp./Deg. (%) ([1]; Batch C tablets, closed 1 g desiccant, 40° C./75% RH, 3 months): 0.0% | Total Imp./Deg. (%) ([1]; Batch C tablets, closed 1 g desiccant, 40° C./75% RH, 6 months): 0.0% | Total Imp./Deg. (%) [1, 5]: 0.0% | Total Imp./Deg. Products (%) ([1]; SOF/VEL SSD/VOX SSD granules (Lot F), glass vials, Initial, 0 months): 0.0% | total impurities/degradation products ([1]; desiccant/packaging study tablets, all conditions, 6 months): 0.0% | total impurities/degradation products ([1]; granules (Lot F), over 6 month storage at 25° C./60% RH and 40° C./75% RH, open and closed): 0.0% | total impurities/degradation products ([1]; packaged Formulation G tablets (Tables 11A, 11B), 40° C./75% RH and 25° C./60% RH for 6 months): 0.0% | total impurities/degradation products ([1]; packaged tablets Batch A, up to 6 months under all conditions): 0.0% | total impurities/degradation products ([1]; packaged tablets Batch D, up to 1 month under all conditions): 0.0% | total impurities/degradation products ([1]; packaged tablets Batches B and C, up to 6 months under all conditions): 0.0% | total impurities/degradation products ([1]; tablet Lots A-D from sub-potent/super-potent VEL SSD and VOX SSD, all conditions): 0.0% | Total Imp./Deg. (%) ([1]; tablets Batch A, 25° C./60% RH, 3 mo): 0.0% | Total Imp./Deg. (%) ([1]; tablets Batch A, 25° C./60% RH, 6 mo): 0.0% | Total Imp./Deg. (%) ([1]; tablets Batch A, 30° C./75% RH, 3 mo): 0.0% | Total Imp./Deg. (%) [1, 6]: 0.0% | Total Imp./Deg. (%) ([1]; tablets Batch A, 40° C./75% RH, 1 mo): 0.0% | Total Imp./Deg. (%) [1, 7]: 0.0% | Total Imp./Deg. (%) ([1]; tablets Batch A, 40° C./75% RH, 6 mo): 0.0% | Total Imp./Deg. (%) ([1]; tablets Batch A, Initial, 0 mo): 0.0% | Total Imp./Deg. (%) ([1]; tablets Batch B, 25° C./60% RH, 3 mo): 0.0% | Total Imp./Deg. (%) ([1]; tablets Batch B, 25° C./60% RH, 6 mo): 0.0% | Total Imp./Deg. (%) ([1]; tablets Batch B, 30° C./75% RH, 3 mo): 0.0% | Total Imp./Deg. (%) ([1]; tablets Batch B, 30° C./75% RH, 6 mo): 0.0% | Total Imp./Deg. (%) ([1]; tablets Batch B, 40° C./75% RH, 1 mo): 0.0% | Total Imp./Deg. (%) ([1]; tablets Batch B, 40° C./75% RH, 3 mo): 0.0% | Total Imp./Deg. (%) [1, 8]: 0.0% | Total Imp./Deg. (%) ([1]; tablets Batch B, Initial, 0 mo): 0.0% | Total Imp./Deg. (%) [1, 9]: 0.0% | Total Imp./Deg. (%) ([1]; tablets Batch D, Initial, 0 mo): 0.0% | Total Imp./Deg. (%) ([1]; tablets Lot A, 25° C./60% RH Closed, 1 mo): 0.0% | Total Imp./Deg. (%) ([1]; tablets Lot A, 25° C./60% RH Closed, 3 mo): 0.0% | Total Imp./Deg. (%) ([1]; tablets Lot A, 25° C./60% RH Closed, 6 mo): 0.0% | Total Imp./Deg. (%) ([1]; tablets Lot A, 40° C./75% RH Closed, 1 mo): 0.0% | Total Imp./Deg. (%) ([1]; tablets Lot A, 40° C./75% RH Closed, 3 mo): 0.0% | Total Imp./Deg. (%) ([1]; tablets Lot A, 40° C./75% RH Closed, 6 mo): 0.0% | Total Imp./Deg. (%) ([1]; tablets Lot A, 40° C./75% RH Open, 1 mo): 0.0% | Total Imp./Deg. (%) ([1]; tablets Lot A, 40° C./75% RH Open, 3 mo): 0.0% | Total Imp./Deg. (%) ([1]; tablets Lot A, 40° C./75% RH Open, 6 mo): 0.0% | Total Imp./Deg. (%) ([1]; tablets Lot A, Initial, 0 mo): 0.0% | Total Imp./Deg. (%) ([1]; tablets Lot B, 25° C./60% RH Closed, 1 mo): 0.0% | Total Imp./Deg. (%) ([1]; tablets Lot B, 25° C./60% RH Closed, 3 mo): 0.0% | Total Imp./Deg. (%) ([1]; tablets Lot B, 25° C./60% RH Closed, 6 mo): 0.0% | Total Imp./Deg. (%) ([1]; tablets Lot B, 40° C./75% RH Closed, 1 mo): 0.0% | Total Imp./Deg. (%) ([1]; tablets Lot B, 40° C./75% RH Closed, 3 mo): 0.0% | Total Imp./Deg. (%) ([1]; tablets Lot B, 40° C./75% RH Closed, 6 mo): 0.0% | Total Imp./Deg. (%) ([1]; tablets Lot B, Initial, 0 mo): 0.0% | total impurities/degradation products ([1]; tablets from SSDs made with high-peroxide copovidone (544 ppm VEL SSD, 655 ppm VOX SSD)): 0.0% | Total Imp./Deg. (%) ([1]; tablets from VEL SSD 7.0% / VOX SSD 3.2% water content, Initial, time 0): 0.0% | Total Imp./Deg. (%) ([1]; tablets from VEL SSD 7.0% / VOX SSD 3.2% water content, closed, 1 g desiccant, 25° C./60% RH, 12 weeks): 0.0% | Total Imp./Deg. (%) ([1]; tablets from VEL SSD 7.0% / VOX SSD 3.2% water content, closed, 1 g desiccant, 40° C./75% RH, 4 weeks): 0.0% | Total Imp./Deg. (%) ([1]; tablets from VEL SSD 7.0% / VOX SSD 3.2% water content, closed, 1 g desiccant, 40° C./75% RH, 12 weeks): 0.0% | Total Imp./Deg. (%) ([1]; tablets from VEL SSD 7.0% / VOX SSD 3.2% water content, open, no desiccant, 40° C./75% RH, 4 weeks): 0.0% | total impurities/degradation products ([1]; tablets from VEL SSD with 6.0% residual ethanol and VOX SSD with 2.1% residual acetone, all conditions): 0.0% | total impurities/degradation products ([1]; tablets from VEL SSD with 7.0% and VOX SSD with 3.2% water content, all conditions): 0.0% | Total Imp./Deg. (%) ([1]; tablets from copovidone with 544 ppm (VEL SSD) / 655 ppm (VOX SSD) peroxides, Initial, time 0): 0.0% | Total Imp./Deg. (%) ([1]; tablets from copovidone with 544 ppm (VEL SSD) / 655 ppm (VOX SSD) peroxides, closed, 1 g desiccant, 25° C./60% RH, 12 weeks): 0.0% | Total Imp./Deg. (%) ([1]; tablets from copovidone with 544 ppm (VEL SSD) / 655 ppm (VOX SSD) peroxides, closed, 1 g desiccant, 40° C./75% RH, 4 weeks): 0.0% | Total Imp./Deg. (%) ([1]; tablets from copovidone with 544 ppm (VEL SSD) / 655 ppm (VOX SSD) peroxides, closed, 1 g desiccant, 40° C./75% RH, 12 weeks): 0.0% | Total Imp./Deg. (%) ([1]; tablets from copovidone with 544 ppm (VEL SSD) / 655 ppm (VOX SSD) peroxides, open, no desiccant, 40° C./75% RH, 4 weeks): 0.0% | I/D (%) ([1]; closed, 1 g desiccant, 25° C./60% RH, 12 weeks): 0.0% | I/D (%) ([1]; closed, 1 g desiccant, 25° C./60% RH, 24 weeks): 0.0% | I/D (%) ([1]; closed, 1 g desiccant, 40° C./75% RH, 4 weeks): 0.0% | I/D (%) ([1]; closed, 1 g desiccant, 40° C./75% RH, 12 weeks): 0.0% | I/D (%) ([1]; closed, 1 g desiccant, 40° C./75% RH, 24 weeks): 0.0% | I/D (%) ([1]; closed, no desiccant, 25° C./60% RH, 12 weeks): 0.0% | I/D (%) ([1]; closed, no desiccant, 25° C./60% RH, 24 weeks): 0.0% | I/D (%) ([1]; closed, no desiccant, 40° C./75% RH, 4 weeks): 0.0% | I/D (%) ([1]; closed, no desiccant, 40° C./75% RH, 12 weeks): 0.0% | I/D (%) ([1]; closed, no desiccant, 40° C./75% RH, 24 weeks): 0.0% | Dissolved at 30 min (%) [2, 3]: 99% | Dissolved at 30 min (%) [2, 4]: 100% | Dissolved at 30 min (%) [2, 5]: 99% | Dissolved at 30 min (%) [2, 6]: 100% | Dissolved at 30 min (%) [2, 7]: 99% | Dissolved at 30 min (%) ([2]; tablets Batch A, Initial, 0 mo): 98% | Dissolved at 30 min (%) [2, 8]: 98% | amount dissolved at 30 min ([2]; tablets Batch D): 100% | Dissolved at 30 min (%) [2, 9]: 100%
